The source made the active and inactive calls. No cut-off for these calls is given here. Numbered stars: 1 amine (or outer) side, 2 acyl side, 3 side chain; on linkers, the order of the positions; unused ones are H or OH. Bridge positions count the residues as written; N and C are the ends. Square brackets hold non-standard residues; d marks the D form. Peptide text beside a SMILES is read from it. X1 = CC(C)[C@@H](CN[*:1])C(=O)[*:2]; S5 = C=CCCC[C@](C)(N)C(=O)O; Nle = CCCC[C@H](N)C(=O)O; Orn = NCCC[C@H](N)C(=O)O; βAla = NCCC(=O)O
How the values were obtained:
DNA [1] = experiment: Inhibition of RpoN-mediated GlnAp2 transcription in Escherichia coli XL-1 Blue expressing GFP assessed as decrease in GFP levels at 10 uM incubated for 4 hrs under minimal nitrogen media by fluorescence based assay relative to control; format: nucleic-acid assay
dsDNA = experiment: Binding affinity to FITC-labelled dsDNA (unknown origin) assessed as dissociation constant incubated for 10 mins by fluorescence polarization assay; format: nucleic-acid assay
[2] = Hemolytic activity in human RBC at 100 uM measured after 1 hrs relative to control; format: toxicity, cell-based, Erythrocyte; conditions: red blood cells (erythrocytes), read-out: Activity
Pseudomonas aeruginosa [3] = experiment: Antibacterial activity against Pseudomonas aeruginosa assessed as inhibition of cell growth upto 32 ug/ml incubated overnight by microtiter broth dilution assay; format: functional; conditions: dose <= 32 µg/ml
Pseudomonas aeruginosa [4] = experiment: Antibacterial activity against Pseudomonas aeruginosa infected in Galleria mellonella larvae assessed as enhancement of survival rate at 10 mg/kg administered intra-hemocoelicly and measured after 24 hrs relative to control; format: functional
[5] = Toxicity in Galleria mellonella larvae assessed as survivability at 10 mg/kg administered intra-hemocoelicly and measured after 24 hrs; format: organism-based; conditions: in vivo, other
Pseudomonas aeruginosa [6] = experiment: Antibacterial activity against Pseudomonas aeruginosa infected in Galleria mellonella larvae assessed as enhancement of survival rate at 10 mg/kg administered intra-hemocoelicly and measured after 36 hrs relative to control; format: functional
DNA [7] = experiment: Binding affinity to Escherichia coli GlnAp2 labelled with FITC assessed as dissociation constant incubated for 10 mins by fluorescence polarization assay; format: nucleic-acid assay

Row | inhibition (DNA [1]) | Compound | Kd (dsDNA) [nM] | hemolysis at 1 h, 100 µM [2] [%] | MIC (Pseudomonas aeruginosa [3]) [µg/mL] | Activity (Pseudomonas aeruginosa [4]) | Activity [5] | Activity (Pseudomonas aeruginosa [6]) [%] | Kd (DNA [7]) [nM]
1 | Active | CCCC[C@H](NC(=O)[C@H](CCC(=O)O)NC(=O)[C@H](CCCNC(=N)N)NC(=O)[C@H](Cc1ccc(O)cc1)NC(=O)[C@H](CCCCN)NC(=O)[C@H](C)NC(=O)[C@]1(C)CCC/C=C\CCC[C@](C)(NC(=O)[C@H](C)NC(=O)[C@H](CCCCN)NC(=O)[C@H](Cc2ccccc2)NC(=O)CCNC(C)=O)C(=O)N[C@@H](CCCNC(=N)N)C(=O)N[C@@H](CCCNC(=N)N)C(=O)N[C@@H]([C@@H](C)O)C(=O)N1)C(=O)N[C@@H](CC(C)C)C(N)=O (Ac-[βAla]FKA[S5]RRT[S5]AKYRE[Nle]L-NH2; staple (Z) 5-9) | – | – | – | – | – | – | –
2 | Active | CCCC[C@H](NC(=O)[C@H](CCC(=O)O)NC(=O)[C@H](CCCNC(=N)N)NC(=O)[C@H](Cc1ccc(O)cc1)NC(=O)[C@H](CCCCN)NC(=O)[C@H](C)NC(=O)[C@]1(C)CCC/C=C\CCC[C@](C)(NC(=O)[C@@H](NC(=O)[C@H](CCCCN)NC(=O)[C@H](Cc2ccccc2)NC(=O)CCNC(C)=O)C(C)C)C(=O)N[C@@H](CCCNC(=N)N)C(=O)N[C@@H](CCCCN)C(=O)N[C@@H]([C@@H](C)O)C(=O)N1)C(=O)N[C@@H](CC(C)C)C(N)=O (Ac-[βAla]FKV[S5]RKT[S5]AKYRE[Nle]L-NH2; staple (Z) 5-9) | 947 | 3.3 | > 32 | – | – | – | –
3 | Active | CCCC[C@H](NC(=O)[C@H](CCC(=O)O)NC(=O)[C@H](CCCNC(=N)N)NC(=O)[C@H](Cc1ccc(O)cc1)NC(=O)[C@H](CCCCN)NC(=O)[C@H](C)NC(=O)[C@]1(C)CCC/C=C\CCC[C@](C)(NC(=O)[C@H](Cc2ccccc2)NC(=O)[C@H](CCCCN)NC(=O)[C@H](Cc2ccccc2)NC(=O)CCNC(C)=O)C(=O)N[C@@H](CCCNC(=N)N)C(=O)N[C@@H](CCCNC(=N)N)C(=O)N[C@@H]([C@@H](C)O)C(=O)N1)C(=O)N[C@@H](CC(C)C)C(N)=O (Ac-[βAla]FKF[S5]RRT[S5]AKYRE[Nle]L-NH2; staple (Z) 5-9) | – | – | – | – | – | – | –
4 | 75% | CCCC[C@H](NC(=O)[C@H](CCC(=O)O)NC(=O)[C@H](CCCNC(=N)N)NC(=O)[C@H](Cc1ccc(O)cc1)NC(=O)[C@H](CCCCN)NC(=O)[C@H](C)NC(=O)[C@]1(C)CCC/C=C\CCC[C@](C)(NC(=O)[C@@H](NC(=O)[C@H](CCCCN)NC(=O)[C@H](Cc2ccccc2)NC(=O)CCNC(C)=O)C(C)C)C(=O)N[C@@H](CCCNC(=N)N)C(=O)N[C@@H](CCCNC(=N)N)C(=O)N[C@@H]([C@@H](C)O)C(=O)N1)C(=O)N[C@@H](CC(C)C)C(N)=O (Ac-[βAla]FKV[S5]RRT[S5]AKYRE[Nle]L-NH2; staple (Z) 5-9) | 834 | 6.6 | > 32 | – | Non-Toxic | – | 1140
5 | – | CCCC[C@H](NC(=O)[C@H](CCC(=O)O)NC(=O)[C@H](CCCNC(=N)N)NC(=O)[C@H](Cc1ccc(O)cc1)NC(=O)[C@H](CCCCN)NC(=O)[C@H](C)NC(=O)[C@@H](NC(=O)[C@@H](NC(=O)[C@H](CCCNC(=N)N)NC(=O)[C@H](CCCNC(=N)N)NC(=O)[C@H](C)NC(=O)[C@@H](NC(=O)[C@H](CCCCN)NC(=O)[C@H](Cc1ccccc1)NC(=O)CCNC(C)=O)C(C)C)[C@@H](C)O)C(C)C)C(=O)N[C@@H](CC(C)C)C(N)=O (Ac-[βAla]FKVARRTVAKYRE[Nle]L-NH2) | – | 0.12 | – | – | – | – | –
6 | Active | CCCC[C@H](NC(=O)[C@H](CCC(=O)O)NC(=O)[C@H](CCCNC(=N)N)NC(=O)[C@@H](Cc1ccc(O)cc1)NC(=O)[C@H](CCCCN)NC(=O)[C@H](C)NC(=O)[C@]1(C)CCC/C=C\CCC[C@](C)(NC(=O)[C@@H](NC(=O)[C@H](CCCCN)NC(=O)CCNC(C)=O)C(C)C)C(=O)N[C@@H](CCCNC(=N)N)C(=O)N[C@@H](CCCNC(=N)N)C(=O)N[C@@H]([C@@H](C)O)C(=O)N1)C(=O)N[C@@H](CC(C)C)C(N)=O | – | – | – | – | – | – | –
7 | Active | CCCC[C@H](NC(=O)[C@H](CCC(=O)O)NC(=O)[C@H](CCCNC(=N)N)NC(=O)[C@H](Cc1ccc(O)cc1)NC(=O)[C@H](CCCCN)NC(=O)[C@H](C)NC(=O)[C@]1(C)CCC/C=C\CCC[C@](C)(NC(=O)[C@@H](NC(=O)[C@H](CCCCN)NC(=O)[C@H](Cc2ccccc2)NC(=O)CCNC(C)=O)C(C)C)C(=O)N[C@@H](CCCCN)C(=O)N[C@@H](CCCNC(=N)N)C(=O)N[C@@H]([C@@H](C)O)C(=O)N1)C(=O)N[C@@H](CC(C)C)C(N)=O (Ac-[βAla]FKV[S5]KRT[S5]AKYRE[Nle]L-NH2; staple (Z) 5-9) | 1680 | 3.3 | > 32 | – | – | – | –
8 | Active | CCCC[C@H](NC(=O)[C@H](CCC(=O)O)NC(=O)[C@H](CCCNC(=N)N)NC(=O)[C@H](Cc1ccc(O)cc1)NC(=O)[C@H](CCCNC(=N)N)NC(=O)[C@H](C)NC(=O)[C@]1(C)CCC/C=C\CCC[C@](C)(NC(=O)[C@@H](NC(=O)[C@H](CCCCN)NC(=O)[C@H](Cc2ccccc2)NC(=O)CCNC(C)=O)C(C)C)C(=O)N[C@@H](CCCNC(=N)N)C(=O)N[C@@H](CCCNC(=N)N)C(=O)N[C@@H]([C@@H](C)O)C(=O)N1)C(=O)N[C@@H](CC(C)C)C(N)=O (Ac-[βAla]FKV[S5]RRT[S5]ARYRE[Nle]L-NH2; staple (Z) 5-9) | – | – | – | – | – | – | –
9 | Active | CCCC[C@H](NC(=O)[C@H](CCC(=O)O)NC(=O)[C@H](CCCNC(=N)N)NC(=O)[C@H](Cc1ccc(O)cc1)NC(=O)[C@H](CCCCN)NC(=O)[C@H](C)NC(=O)[C@]1(C)CCC/C=C\CCC[C@](C)(NC(=O)[C@@H](NC(=O)[C@H](CCCN)NC(=O)[C@H](Cc2ccccc2)NC(=O)CCNC(C)=O)C(C)C)C(=O)N[C@@H](CCCNC(=N)N)C(=O)N[C@@H](CCCNC(=N)N)C(=O)N[C@@H]([C@@H](C)O)C(=O)N1)C(=O)N[C@@H](CC(C)C)C(N)=O (Ac-[βAla]F[Orn]V[S5]RRT[S5]AKYRE[Nle]L-NH2; staple (Z) 5-9) | – | – | – | – | – | – | –
10 | Active | CCCC[C@H](NC(=O)[C@H](CCC(=O)O)NC(=O)[C@H](CCCNC(=N)N)NC(=O)[C@H](Cc1ccc(O)cc1)NC(=O)[C@H](CCCCN)NC(=O)[C@@H](NC(=O)[C@]1(C)CCC/C=C\CCC[C@](C)(NC(=O)[C@H](C)NC(=O)[C@H](CCCCN)NC(=O)[C@H](Cc2ccccc2)NC(=O)CCNC(C)=O)C(=O)N[C@@H](CCCNC(=N)N)C(=O)N[C@@H](CCCNC(=N)N)C(=O)N[C@@H]([C@@H](C)O)C(=O)N1)C(C)C)C(=O)N[C@@H](CC(C)C)C(N)=O (Ac-[βAla]FKA[S5]RRT[S5]VKYRE[Nle]L-NH2; staple (Z) 5-9) | – | – | – | – | – | – | –

Row | Compound | inhibition (DNA [1]) | Kd (dsDNA) [nM] | hemolysis at 1 h, 100 µM [2] [%] | MIC (Pseudomonas aeruginosa [3]) [µg/mL] | Activity (Pseudomonas aeruginosa [4]) | Activity [5] | Activity (Pseudomonas aeruginosa [6]) [%] | Kd (DNA [7]) [nM]
11 | CCCC[C@H](NC(=O)[C@H](CCC(=O)O)NC(=O)[C@H](CCCNC(=N)N)NC(=O)[C@H](Cc1ccc(O)cc1)NC(=O)[C@H](CCCCN)NC(=O)CNC(=O)[C@]1(C)CCC/C=C\CCC[C@](C)(NC(=O)[C@@H](NC(=O)[C@H](CCCCN)NC(=O)[C@H](Cc2ccccc2)NC(=O)CCNC(C)=O)C(C)C)C(=O)N[C@@H](CCCNC(=N)N)C(=O)N[C@@H](CCCNC(=N)N)C(=O)N[C@@H]([C@@H](C)O)C(=O)N1)C(=O)N[C@@H](CC(C)C)C(N)=O (Ac-[βAla]FKV[S5]RRT[S5]GKYRE[Nle]L-NH2; staple (Z) 5-9) | Active | 376 | 0.53 | > 32 | 80% | Non-Toxic | 10 | –
12 | CCCC[C@H](NC(=O)[C@H](CCC(=O)O)NC(=O)[C@H](CCCNC(=N)N)NC(=O)[C@H](Cc1ccc(O)cc1)NC(=O)[C@H](CCCCN)NC(=O)[C@H](C)NC(=O)[C@]1(C)CCC/C=C\CCC[C@](C)(NC(=O)[C@H](CNC(=O)[C@H](CCCCN)NC(=O)[C@H](Cc2ccccc2)NC(=O)CCNC(C)=O)C(C)C)C(=O)N[C@@H](CCCNC(=N)N)C(=O)N[C@@H](CCCNC(=N)N)C(=O)N[C@@H]([C@@H](C)O)C(=O)N1)C(N)=O (Ac-[βAla]FK[X1][S5]RRT[S5]AKYRE[Nle]-NH2; staple (Z) 5-9) | Active | 385 | 35 | > 32 | Active | Non-Toxic | – | –
13 | CCCC[C@H](NC(=O)[C@H](CCC(=O)O)NC(=O)[C@H](CCCNC(=N)N)NC(=O)[C@]1(C)CCC/C=C\CCC[C@](C)(NC(=O)[C@H](CCCNC(=N)N)NC(=O)[C@H](CCCNC(=N)N)NC(=O)[C@H](C)NC(=O)[C@@H](NC(=O)[C@H](CCCCN)NC(=O)[C@H](Cc2ccccc2)NC(=O)CCNC(C)=O)C(C)C)C(=O)N[C@@H](C(C)C)C(=O)N[C@@H](C)C(=O)N[C@@H](CCCCN)C(=O)N1)C(=O)N[C@@H](CC(C)C)C(N)=O (Ac-[βAla]FKVARR[S5]VAK[S5]RE[Nle]L-NH2; staple (Z) 8-12) | Active | 366 | 10.7 | > 32 | Active | Non-Toxic | – | –
14 | CCCC[C@H](NC(=O)[C@H](CCC(=O)O)NC(=O)[C@H](CCCNC(=N)N)NC(=O)[C@H](Cc1ccc(O)cc1)NC(=O)[C@H](CCCCN)NC(=O)[C@H](C)NC(=O)[C@]1(C)CCC/C=C\CCC[C@](C)(NC(=O)[C@@H](NC(=O)[C@H](CCCNC(=N)N)NC(=O)[C@H](Cc2ccccc2)NC(=O)CCNC(C)=O)C(C)C)C(=O)N[C@@H](CCCNC(=N)N)C(=O)N[C@@H](CCCNC(=N)N)C(=O)N[C@@H]([C@@H](C)O)C(=O)N1)C(=O)N[C@@H](CC(C)C)C(N)=O (Ac-[βAla]FRV[S5]RRT[S5]AKYRE[Nle]L-NH2; staple (Z) 5-9) | Active | 346 | 1.5 | > 32 | 80% | Non-Toxic | 20 | –

Source: ChEMBL document CHEMBL5107971, “RpoN-Based stapled peptides with improved DNA binding suppress Pseudomonas aeruginosa virulence” (RSC Med Chem, 2022)
